Experimental data: PubChem BioAssay AID1963448 (Molecular Pharmacology Branch, DTP, NCI, 2024)

Tested on: 616215-338-R-J1-PDC complex spheroid growth, % test/control
Assay: Anticancer human tumor 616215-338-R-J1-PDC patient-derived colon adenocarcinoma cell line growth inhibition [Asc]
Settings: for IC50: curve of first compound; for viability, T/C: stronger effect = lower value
Method in brief: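 Complex spheroids combining tumor cells with HUVEC endothelial cells and human MSCs, at 37 degrees C, 5% CO2; agents tested alone or combined, half-log dilutions from at or near clinical Cmax, or 10 microM if Cmax unknown.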
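Further: spheroids exposed to agents for seven days before readout.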
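Wherever viability, T/C is given: 100% = DMSO vehicle control viability.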

**Q.** `Cn1ncnc1[C@H]1c2n[nH]c(=O)c3cc(F)cc(c23)N[C@@H]1c1ccc(F)cc1` + CNC(C)C(=O)NC1CN(S(=O)(=O)c2cccc(S(=O)(=O)N3CCC4CCC(C(=O)NC(c5ccccc5)c5ccccc5)N4C(=O)C(NC(=O)C(C)NC)C3)c2)CCC2CCC(C(=O)NC(c3ccccc3)c3ccccc3)N2C1=O was tested. Which IC50 (second compound 0.00316 µM) did it give?
**A.** < 0.316 nM

**Q.** What about the IC50 (second compound 0.01 µM) of the same compound?
**A.** > 100 nM

**Q.** And the IC50 (second compound 0.0316 µM)?
**A.** > 100 nM

**Q.** What about the IC50 (second compound 0.1 µM) of the same compound?
**A.** > 100 nM

**Q.** What about the IC50 (second compound 0.316 µM) of the same compound?
**A.** > 100 nM

**Q.** What about the IC50 (second compound 1 µM) of the same compound?
**A.** > 100 nM

**Q.** What about the viability, T/C (second compound 0.00316 µM, first compound 0.000316 µM) of the same compound?
**A.** 10.7%

**Q.** What about the viability, T/C (second compound 0.00316 µM, first compound 0.001 µM) of the same compound?
**A.** 10.5%

**Q.** What about the viability, T/C (second compound 0.00316 µM, first compound 0.00316 µM) of the same compound?
**A.** 7.58%

**Q.** What about the viability, T/C (second compound 0.00316 µM, first compound 0.01 µM) of the same compound?
**A.** 9.25%

**Q.** And the viability, T/C (second compound 0.00316 µM, first compound 0.0316 µM)?
**A.** 9.45%

**Q.** What about the viability, T/C (second compound 0.00316 µM, first compound 0.1 µM) of the same compound?
**A.** 8.48%

**Q.** What about the viability, T/C (second compound 0.01 µM, first compound 0.000316 µM) of the same compound?
**A.** 95%

**Q.** And the viability, T/C (second compound 0.01 µM, first compound 0.001 µM)?
**A.** 101%

**Q.** What about the viability, T/C (second compound 0.01 µM, first compound 0.00316 µM) of the same compound?
**A.** 97.2%

**Q.** And the viability, T/C (second compound 0.01 µM, first compound 0.01 µM)?
**A.** 92.4%

**Q.** And the viability, T/C (second compound 0.01 µM, first compound 0.0316 µM)?
**A.** 95.1%

**Q.** What about the viability, T/C (second compound 0.01 µM, first compound 0.1 µM) of the same compound?
**A.** 98.5%

**Q.** And the viability, T/C (second compound 0.0316 µM, first compound 0.000316 µM)?
**A.** 91.5%

**Q.** What about the viability, T/C (second compound 0.0316 µM, first compound 0.001 µM) of the same compound?
**A.** 95.5%

**Q.** What about the viability, T/C (second compound 0.0316 µM, first compound 0.00316 µM) of the same compound?
**A.** 101%

**Q.** And the viability, T/C (second compound 0.0316 µM, first compound 0.01 µM)?
**A.** 102%

**Q.** What about the viability, T/C (second compound 0.0316 µM, first compound 0.0316 µM) of the same compound?
**A.** 100%

**Q.** And the viability, T/C (second compound 0.0316 µM, first compound 0.1 µM)?
**A.** 110%

**Q.** And the viability, T/C (second compound 0.1 µM, first compound 0.000316 µM)?
**A.** 106%

**Q.** And the viability, T/C (second compound 0.1 µM, first compound 0.001 µM)?
**A.** 108%

**Q.** What about the viability, T/C (second compound 0.1 µM, first compound 0.00316 µM) of the same compound?
**A.** 103%

**Q.** And the viability, T/C (second compound 0.1 µM, first compound 0.01 µM)?
**A.** 108%

**Q.** What about the viability, T/C (second compound 0.1 µM, first compound 0.0316 µM) of the same compound?
**A.** 102%

**Q.** And the viability, T/C (second compound 0.1 µM, first compound 0.1 µM)?
**A.** 103%

**Q.** And the viability, T/C (second compound 0.316 µM, first compound 0.000316 µM)?
**A.** 97.6%

**Q.** What about the viability, T/C (second compound 0.316 µM, first compound 0.001 µM) of the same compound?
**A.** 104%

**Q.** And the viability, T/C (second compound 0.316 µM, first compound 0.00316 µM)?
**A.** 102%

**Q.** And the viability, T/C (second compound 0.316 µM, first compound 0.01 µM)?
**A.** 104%

**Q.** What about the viability, T/C (second compound 0.316 µM, first compound 0.0316 µM) of the same compound?
**A.** 102%

**Q.** And the viability, T/C (second compound 0.316 µM, first compound 0.1 µM)?
**A.** 98.4%

**Q.** And the viability, T/C (second compound 1 µM, first compound 0.000316 µM)?
**A.** 107%

**Q.** And the viability, T/C (second compound 1 µM, first compound 0.001 µM)?
**A.** 99.2%

**Q.** And the viability, T/C (second compound 1 µM, first compound 0.00316 µM)?
**A.** 97.2%

**Q.** What about the viability, T/C (second compound 1 µM, first compound 0.01 µM) of the same compound?
**A.** 99.2%

**Q.** What about the viability, T/C (second compound 1 µM, first compound 0.0316 µM) of the same compound?
**A.** 96%

**Q.** And the viability, T/C (second compound 1 µM, first compound 0.1 µM)?
**A.** 101%
